≈ marks a conversion by molar mass, not a printed value.
Assays:
[1] = Human Caco-2 passive permeability A to B Papp; type: in vitro ADME; settings: apical pH 6.5, basolateral pH 7.4, efflux inhibitor cocktail
Protocol: An automated assay was used to determine the passive permeability of compounds in Caco-2 cell monolayers carried out over 2 hours with an apical pH of 6.5 and basolateral pH of 7.4. The Caco-2 AB inhibition assay is carried out with chemical inhibition of the three major efflux transporters ABCB1 (P-gp), ABCG2 (BCRP) and ABCC2 (MRP2) in Caco-2 cells. Incubation of both apical and basolateral is carried out with a cocktail of inhibitors (50 μM quinidine, 20 μM sulfasalazine and 100 μM benzbromarone). Samples were analyzed through LC/MS/MS to estimate the apparent permeability coefficients (Papp) of compounds across Caco-2 cell monolayers and results are quoted in units of ×10^−6 cm/s.

[2] = Human Caco-2 bidirectional permeability A to B and B to A; type: in vitro ADME; settings: for Papp at 2 h: Caco-2, 2 hours, pH 7.4
Protocol: An automated assay was used to determine the bidirectional permeability (efflux and uptake) of compounds in Caco-2 cells carried out over 2 hours at pH 7.4.
The efflux ratio (ER) can be determined using the following equation: ER=Papp(B-A)/Papp(A-B) Where Papp (B-A) indicates the apparent permeability coefficient in basolateral to apical direction, and Papp (A-B) indicates the apparent permeability coefficient in apical to basolateral direction. Human Caco-2 Passive Permeability A to B Papp

[3] = Human plasma protein binding (equilibrium dialysis); type: in vitro ADME; settings: dialysis 18 hours
Procedure, shortened: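 Fraction unbound (fu %) in human plasma, from LC/MSMS of plasma and buffer sides (7-point plasma calibration) after 18 h rapid equilibrium dialysis. Single determinations, with compounds pooled up to 10 per plasma pool.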

[4] = Thermodynamic solubility (shake-flask); type: physicochemical; settings: aqueous phosphate buffer, 25 °C, pH 7.4, aqueous buffer, thermodynamic from solid, aqueous phosphate buffer pH 7.4, 24 hours
Procedure, shortened: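 Shake-flask method starting from 10 mM DMSO stocks, which are dried before use. Residue equilibrated 24 h at 25° C. in aqueous phosphate buffer, pH 7.4. Dissolved fraction separated and quantified by UPLC/MS/MS, with QC samples in each run.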

[5] = log D (shake flask, 1-octanol/aqueous buffer); type: physicochemical
Procedure, shortened: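 Distribution between 1-octanol and aqueous buffer at pH 7.4 was measured by shake flask, with compounds run in mixtures of ten. Relative concentrations in each phase were quantified by UPLC with quantitative MS. Caffeine served as a low-log D QC sample in all runs.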

ERα receptor = ERα receptor (Homo sapiens (Human), UniProt P03372); settings: 500 mg monthly dose; cited from earlier work
Chain of ERα receptor (P03372 whole entry, the tested form may be a part): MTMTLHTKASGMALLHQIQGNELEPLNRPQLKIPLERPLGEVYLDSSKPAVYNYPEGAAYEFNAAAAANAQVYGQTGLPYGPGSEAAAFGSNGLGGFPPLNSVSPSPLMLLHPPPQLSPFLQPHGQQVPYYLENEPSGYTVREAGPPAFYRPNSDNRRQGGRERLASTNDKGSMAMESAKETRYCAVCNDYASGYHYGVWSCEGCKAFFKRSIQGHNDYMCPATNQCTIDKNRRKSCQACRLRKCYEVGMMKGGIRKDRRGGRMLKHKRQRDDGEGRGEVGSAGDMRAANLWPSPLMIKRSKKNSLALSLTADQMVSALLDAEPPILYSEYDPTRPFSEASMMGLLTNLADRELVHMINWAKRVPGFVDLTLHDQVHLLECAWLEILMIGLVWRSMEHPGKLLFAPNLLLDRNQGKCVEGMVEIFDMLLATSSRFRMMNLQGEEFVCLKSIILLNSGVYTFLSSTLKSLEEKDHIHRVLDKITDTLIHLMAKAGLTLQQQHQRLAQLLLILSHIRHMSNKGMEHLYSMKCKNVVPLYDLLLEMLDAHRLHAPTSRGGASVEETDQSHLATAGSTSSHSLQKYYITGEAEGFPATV

[6] = target: recombinant human Estrogen Receptor alpha ligand binding domain (ER alpha-LBD (GST)) (Homo sapiens (Human), UniProt P03372); test: ERα binding assay (LanthaScreen TR-FRET competition); settings: TR-FRET, displacement of Fluormone ES2
Chain of recombinant human Estrogen Receptor alpha ligand binding domain (ER alpha-LBD (GST)) (P03372 307-554): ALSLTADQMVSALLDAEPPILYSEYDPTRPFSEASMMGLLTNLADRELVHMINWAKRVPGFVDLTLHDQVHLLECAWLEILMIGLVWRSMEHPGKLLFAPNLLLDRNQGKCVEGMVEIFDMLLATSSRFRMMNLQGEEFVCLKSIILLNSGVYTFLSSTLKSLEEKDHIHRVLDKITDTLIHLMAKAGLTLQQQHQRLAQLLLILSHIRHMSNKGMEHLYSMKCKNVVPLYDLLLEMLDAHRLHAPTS
Procedure, shortened: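 Competition binding to GST-tagged human ERα ligand-binding domain, read by LanthaScreen TR-FRET: Tb-anti-GST antibody labels the receptor and compounds displace a fluorescent tracer, lowering the signal. IC50 was taken from dose-response curve fitting.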

[7] = Human hepatocyte assay (metabolic stability); type: in vitro ADME; settings: human hepatocytes
Protocol: The metabolic stability of compounds in human hepatocytes was assessed using the following protocol: • 1. Prepare 10 mM stock solutions of compound and control compounds in appropriate solvent (DMSO). Place incubation medium (L-15 Medium) in a 37° C. water bath, and allow warming for at least 15 minutes prior to use. • 2. Add 80 μL of acetonitrile to each well of the 96-well deep well plate (quenching plate). • 3. In a new 96-well plate, dilute the 10 mM test compounds and the control compounds to 100 μM by combining 198 μL of acetonitrile and 2 μL of 10 mM stock. • 4. Remove a vial of cryopreserved (less than −150° C.) human hepatocytes (LiverPool™ 10 Donor Human hepatocytes obtained from Celsis IVT. Chicago, Ill. (Product No. S01205)) from storage, ensuring that vials remain at cryogenic temperatures until thawing process ensues. As quickly as possible, thaw the cells by placing the vial in a 37° C. water bath and gently shaking the vials. Vials should remain in water bath until all ice crystals have dissolved and are no longer visible. After thawing is complete, spray vial with 70% ethanol, transfer the vial to a bio-safety cabinet. • 5. Open the vial and pour the contents into the 50 mL conical tube containing thawing medium. Place the 50 mL conical tube into a centrifuge and spin at 100 g for 10 minutes. […] Using Cellometer® Vision, count cells and determine the viable cell density. Cells with poor viability (<80% viability) are not acceptable for use. […] Transfer 247.5 μL of hepatocytes into each well of a 96-well cell culture plate. Place the plate on Eppendorf Thermomixer Comfort plate shaker to allow the hepatocytes to warm for 10 minutes. • 8. Add 2.5 μL of 100 μM test compound or control compounds into an incubation well containing cells, mix to achieve a homogenous suspension at 0.5 min, which when achieved, will define the 0.5 min time point. At the 0.5 min time, transfer 20 μL of incubated mixture to wells in a “Quenching plate” followed by vortexing. • 9. Incubate the plate at 37° C. at 900 rpm on an Eppendorf Thermomixer Comfort plate shaker. […] Centrifuge the quenching plates for 20 minutes at 4,000 rpm. 4 different compounds are pooled into one cassette and used for LC/MS/MS analysis.
All calculations were carried out using Microsoft Excel. Peak areas were determined from extracted ion chromatograms. In vitro intrinsic clearance (in vitro Clint, in […]) of parent compound was determined by regression analysis of the Ln percent parent disappearance vs. time curve.
V=incubation volume (0.25 mL);
N=number of hepatocytes per well (0.25×10^6 cells).

[8] = target: T1, Estrogen Receptor (ERα) in MCF-7 cells (Homo sapiens (Human), UniProt P03372); test: MCF-7 ER down-regulation assay (immuno-fluorescence); type: cell-based
T1 sequence (P03372 whole entry): as the sequence (P03372 whole entry, the tested form may be a part) above
Procedure, shortened: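 Compounds dispensed acoustically from DMSO stocks onto MCF-7 cells; cells fixed 20 min at room temperature, then automated immunostaining for ERα with overnight incubation at 4° C. Read-out is mean total ER fluorescence intensity normalized to cell number (intensity per cell), with curve fitting for concentration-response values.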

[9] = target: estrogen receptor (ERα) in CAMA-1 cells (Homo sapiens (Human), UniProt P03372); test: Western blotting assay, ER down-regulation in CAMA-1; type: cell-based; settings: 100 nM compound, 48 h, normalised to 100 nM fulvestrant
Chain of estrogen receptor (ERα) in CAMA-1 cells (P03372 whole entry): as the sequence (P03372 whole entry, the tested form may be a part) above
Protocol: (§1) Cells were incubated with compounds (100 nM) or vehicle control (0.1% DMSO) for 48 h at 37° C., 5% CO2 before washing once with PBS and lysing with 80 μl lysis buffer (25 mM Tris/HCl, 3 mM EDTA, 3 mM EGTA, 50 mM NaF, 2 mM sodium orthovanadate, 0.27 M sucrose, 10 mM β-glycerophosphate, 5 mM sodium pyrophosphate, 0.5% TritonX-100, pH 6.8) on ice.
(§2) Samples were boiled for 10 min at 95° C. and then frozen at −20° C. until ready for use.
(§3) The blot was stained with Ponceau S (P7170, Sigma) and cut according to appropriate molecular weight markers.
(§4) Membranes were blocked for 1 hour at room temp in 5% Marvel (w/v) in phosphate-buffered saline containing 0.05% Tween™ 20 (PBS/Tween). Blots were then incubated with anti-ERα (SP1) rabbit monoclonal antibody (Thermofisher) diluted 1:1000 at 4° C. overnight (with gentle shaking) followed by several washes with PBS/Tween. […] All antibodies were made up in 5% Marvel (w/v) in PBS/Tween.
(§5) Down-regulation of the ERα receptor was normalised to the vehicle control (0% down-regulation) and the 100 nM fulvestrant control (100% down-regulation) run within the same gel.

[10] = target: T1, Estrogen Receptor (ERα) in MCF-7 cells; test: Western blotting assay, ER down-regulation in MCF-7; type: cell-based; settings: 100 nM compound, 48 h, normalised to 100 nM fulvestrant
Protocol: as §1, §2, §3, §4, §5

hERG potassium channel = hERG potassium channel (Homo sapiens (Human), UniProt Q12809); test: hERG binding assay (automated patch clamp, CHO cells); type: cell-based; settings: CHO cell line, Nanion Syncropatch 384PE
Chain of hERG potassium channel (Q12809 whole entry): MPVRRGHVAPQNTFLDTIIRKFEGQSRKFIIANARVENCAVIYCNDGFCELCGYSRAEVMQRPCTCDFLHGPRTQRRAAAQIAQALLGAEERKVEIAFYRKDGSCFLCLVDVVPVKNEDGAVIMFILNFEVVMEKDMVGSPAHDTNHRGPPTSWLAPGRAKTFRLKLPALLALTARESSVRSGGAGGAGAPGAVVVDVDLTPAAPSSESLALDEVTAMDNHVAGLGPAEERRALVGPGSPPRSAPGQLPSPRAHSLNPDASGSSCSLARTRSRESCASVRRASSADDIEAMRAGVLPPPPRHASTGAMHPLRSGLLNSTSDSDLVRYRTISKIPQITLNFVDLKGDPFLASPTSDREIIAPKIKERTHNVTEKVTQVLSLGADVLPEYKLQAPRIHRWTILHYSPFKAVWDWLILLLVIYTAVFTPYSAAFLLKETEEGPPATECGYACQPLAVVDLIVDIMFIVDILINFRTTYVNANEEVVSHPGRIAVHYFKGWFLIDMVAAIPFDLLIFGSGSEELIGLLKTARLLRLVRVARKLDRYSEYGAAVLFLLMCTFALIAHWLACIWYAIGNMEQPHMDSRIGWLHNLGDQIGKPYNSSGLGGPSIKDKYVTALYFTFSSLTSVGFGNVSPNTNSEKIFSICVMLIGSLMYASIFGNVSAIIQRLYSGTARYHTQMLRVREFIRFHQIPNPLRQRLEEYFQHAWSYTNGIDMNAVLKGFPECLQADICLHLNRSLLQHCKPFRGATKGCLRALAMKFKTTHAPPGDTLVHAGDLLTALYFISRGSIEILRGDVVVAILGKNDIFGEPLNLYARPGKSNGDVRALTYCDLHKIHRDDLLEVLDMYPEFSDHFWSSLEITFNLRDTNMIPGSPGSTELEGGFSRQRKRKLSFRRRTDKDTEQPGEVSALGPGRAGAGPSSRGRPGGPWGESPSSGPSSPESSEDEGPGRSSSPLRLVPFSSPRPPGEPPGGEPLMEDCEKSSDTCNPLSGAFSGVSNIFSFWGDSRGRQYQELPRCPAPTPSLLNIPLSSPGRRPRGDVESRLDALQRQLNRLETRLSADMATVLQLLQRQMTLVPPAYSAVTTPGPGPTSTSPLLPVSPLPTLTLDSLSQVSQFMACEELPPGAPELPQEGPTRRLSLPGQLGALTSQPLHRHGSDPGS
Procedure, shortened: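 CHO cells on automated patch clamp; compounds tested in quadruplicate. Currents evoked every 15 s from −80 mV holding by a 500 ms step to 60 mV then 500 ms to −40 mV.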

[11] = 1-octanol/aqueous buffer, pH 7.4, pH 7.4, 1-octanol/aqueous buffer

Row | Structure (SMILES) | Papp at 2 h [1] | Papp at 2 h [2] | Human plasma protein binding (% free) [3] | solubility at 24 h [4] | logD ([5]; pH 7.4, 1-octanol/aqueous buffer) | turnover of the receptor in patient samples (ERα receptor) | efflux ratio at 2 h ([2]; Caco-2, pH 7.4) | IC50 [6] | hepatocyte CLint at 1 µM [7] | logD [5, 11] | IC50 [8] | CAMA1 Western % ER deg vs Fv [9] | MCF7 Western % ER deg vs Fv [10] | IC50 (hERG potassium channel)
1 | C[C@@H]1Cc2c(ccc3[nH]ncc23)[C@@H](c2ccc(NC3CN(CCCF)C3)c(F)n2)N1CC(F)(F)F [Example 29, 2-fluoro-N-(1-(3-fluoropropyl)azetidin-3-yl)-6-((6S,8R)-8-methyl-7-(2,2,2-trifluoroethyl)-6,7,8,9-tetrahydro-3H-pyrazolo[4,3-f]isoquinolin-6-yl)pyridin-3-amine] | 24 ×10⁻⁶ cm/s | 12 ×10⁻⁶ cm/s | 16 % free | 779 µM (≈ 385 µg/mL) | 3 | – | – | – | – | – | – | – | – | –
2 | C[C@]12CC[C@@H]3c4ccc(O)cc4C[C@@H](CCCCCCCCC[S+]([O-])CCCC(F)(F)C(F)(F)F)[C@H]3[C@@H]1CC[C@@H]2O (some centres unmarked) [Fulvestrant, fulvestrant] | – | – | – | – | – | less than 50% | – | – | – | – | – | – | – | –
3 | C[C@@H]1Cc2c(ccc3[nH]ncc23)[C@@H](c2c(F)cc(NC3CN(CCCF)C3)cc2F)N1CC1(F)CC1 [Example 11, N-(3,5-difluoro-4-((6S,8R)-7-((1-fluorocyclopropyl)methyl)-8-methyl-6,7,8,9-tetrahydro-3H-pyrazolo[4,3-f]isoquinolin-6-yl)phenyl)-1-(3-fluoropropyl)azetidin-3-amine] | – | 1.6 ×10⁻⁶ cm/s | 2 % free | 186 µM (≈ 93.3 µg/mL) | – | – | 1.4 | 20 nM | 7 µL/min/1e6 cells | 3.9 | 0.094 nM | – | – | –
4 | C[C@@H]1Cc2c(ccc3[nH]ncc23)[C@@H](c2ncc(NC3CN(CCCF)C3)cc2F)N1CC(F)F [Example 46, 6-((6S,8R)-7-(2,2-difluoroethyl)-8-methyl-6,7,8,9-tetrahydro-3H-pyrazolo[4,3-f]isoquinolin-6-yl)-5-fluoro-N-(1-(3-fluoropropyl)azetidin-3-yl)pyridin-3-amine] | – | – | 31 % free | > 1000 µM | – | – | – | 3.6 nM | – | 2.5 | 0.4 nM | 102% | 105% | > 40000 nM
5 | C[C@@H]1Cc2c(ccc3[nH]ncc23)[C@@H](c2ccc(NC3CN(CCCF)C3)nc2F)N1CC(F)(F)F [Example 40, 6-fluoro-N-(1-(3-fluoropropyl)azetidin-3-yl)-5-((6S,8R)-8-methyl-7-(2,2,2-trifluoroethyl)-6,7,8,9-tetrahydro-3H-pyrazolo[4,3-f]isoquinolin-6-yl)pyridin-2-amine] | – | – | 6.4 % free | 479 µM (≈ 237 µg/mL) | – | – | – | 1.3 nM | – | 3.5 | 0.1 nM | 120% | 98% | 4500 nM
6 | C[C@@H]1Cc2c(ccc3[nH]nc(F)c23)[C@@H](c2ccc(NC3CN(CCCF)C3)cn2)N1CC(F)(F)F [Example 32] | – | 3.4 ×10⁻⁶ cm/s | 6.5 % free | 692 µM (≈ 342 µg/mL) | – | – | – | – | – | 3.5 | – | 89% | 89% | 14000 nM
7 | C[C@@H]1Cc2c(ccc3[nH]ncc23)[C@@H](c2ncc(OC3CN(CCCF)C3)cc2F)N1CC(F)(F)CO [Example 59, 2,2-difluoro-3-((6S,8R)-6-(3-fluoro-5-((1-(3-fluoropropyl)azetidin-3-yl)oxy)pyridin-2-yl)-8-methyl-3,6,8,9-tetrahydro-7H-pyrazolo[4,3-f]isoquinolin-7-yl)propan-1-ol] | – | – | 33 % free | 971 µM (≈ 493 µg/mL) | – | – | – | 7.2 nM | – | 2.4 | 1.6 nM | 102% | 104% | > 40000 nM
8 | CC(C)CN1[C@H](c2ccc(NC3CN(CCCF)C3)cn2)c2ccc3[nH]ncc3c2C[C@H]1C [Example 69, N-(1-(3-fluoropropyl)azetidin-3-yl)-6-((6S,8R)-7-isobutyl-8-methyl-6,7,8,9-tetrahydro-3H-pyrazolo[4,3-f]isoquinolin-6-yl)pyridin-3-amine] | – | – | 37 % free | > 1000 µM | – | – | – | 8.9 nM | – | 2.9 | 0.55 nM | 98% | 95% | 24000 nM

Reference: patent US10131663B2, “Chemical compounds” (AstraZeneca AB, priority 2016, dated 2018)
